From ChEMBL document CHEMBL2406972, “Synthesis and antitumor activities of novel dibenzo[b,d]furan-imidazole hybrid compounds” (Eur J Med Chem, 2013) come the findings set out here.

In assay [1] the test system is SMMC-7721. The experiment in a line: Cytotoxicity against human SMMC7721 cells after 48 hrs by MTT assay. To be noted: SMMC-7721, 48 h. The format is functional, cell-based. For orientation: Tetrazolium dyes change colour on reduction, which living cells bring about.
For assay [2], the system named is HL-60. The experiment in a line: Cytotoxicity against human HL60 cells after 48 hrs by MTT assay. The format is functional, cell-based. The settings on record: HL-60, 48 h.
Assay [3] concerns A549. The experiment in a line: Cytotoxicity against human A549 cells after 48 hrs by MTT assay. It is filed as functional, cell-based. The settings on record: A549, 48 h.
Assay [4] has as its system SW480. The experiment in a line: Cytotoxicity against human SW480 cells after 48 hrs by MTT assay. The format is functional, cell-based. To be noted: SW480, 48 h.
Assay [5] deals with MCF7. The experiment in a line: Cytotoxicity against human MCF7 cells after 48 hrs by MTT assay. The format is functional, cell-based. To be noted: MCF7, 48 h.
Assay [6] deals with SMMC-7721. Briefly: Induction of apoptosis in human SMMC7721 cells assessed as viable cells at 6 uM after 48 hrs using by V-FITC/PI double-staining assay (reference value: 92.9%). The format is functional. To be noted: SMMC-7721, 48 h, read-out: Activity.
Assay [7] has as its system SMMC-7721. The experiment in a line: Cell cycle arrest in human SMMC7721 cells assessed as accumulation at G1 phase after 24 hrs using PI staining by flow cytometry. It is filed as functional, cell-based. In general terms: In flow cytometry, cells or beads pass a laser one at a time.
Assay [8] has as its system SMMC-7721. Briefly: Cell cycle arrest in human SMMC7721 cells assessed as accumulation at G2/M phase at 3 uM after 24 hrs using PI staining by flow cytometry (reference value: 12.84%). The format is functional.
For assay [9], the system named is SMMC-7721. Briefly: Induction of apoptosis in human SMMC7721 cells assessed as early apoptotic cells at 3 uM after 48 hrs using by V-FITC/PI double-staining assay (reference value: 1.76%). The format is functional.
Assay [10] has as its system SMMC-7721. The experiment in a line: Cell cycle arrest in human SMMC7721 cells assessed as accumulation at G1 phase at 3 uM after 24 hrs using PI staining by flow cytometry (reference value: 60.29%). It is filed as functional.
Assay [11] relates to SMMC-7721. Briefly: Induction of apoptosis in human SMMC7721 cells at 3 uM after 48 hrs using by V-FITC/PI double-staining assay (reference value: 2.73 +/- 0.69%). It is filed as functional.
The test system of assay [12] is SMMC-7721. The experiment in a line: Induction of apoptosis in human SMMC7721 cells assessed as viable cells at 9 uM after 48 hrs using by V-FITC/PI double-staining assay (reference value: 92.9%). The format is functional. To be noted: SMMC-7721, 48 h, read-out: Activity.
Assay [13] has as its system SMMC-7721. Briefly: Induction of apoptosis in human SMMC7721 cells assessed as viable cells at 3 uM after 48 hrs using by V-FITC/PI double-staining assay (reference value: 92.9%). To be noted: SMMC-7721, 48 h, read-out: Activity. The format is functional.
In assay [14] the test system is SMMC-7721. Briefly: Induction of apoptosis in human SMMC7721 cells assessed as late apoptotic cells at 3 uM after 48 hrs using by V-FITC/PI double-staining assay (reference value: 0.481%). It is filed as functional.
Assay [15] deals with SMMC-7721. The experiment in a line: Induction of apoptosis in human SMMC7721 cells at 9 uM after 48 hrs using by V-FITC/PI double-staining assay (reference value: 2.73 +/- 0.69%). It is filed as functional.
For assay [16], the system named is SMMC-7721. The experiment in a line: Induction of apoptosis in human SMMC7721 cells assessed as late apoptotic cells at 6 uM after 48 hrs using by V-FITC/PI double-staining assay (reference value: 0.481%). It is filed as functional.
Assay [17] has as its system SMMC-7721. Briefly: Induction of apoptosis in human SMMC7721 cells assessed as early apoptotic cells at 9 uM after 48 hrs using by V-FITC/PI double-staining assay (reference value: 1.76%). The format is functional.
The test system of assay [18] is SMMC-7721. The experiment in a line: Cell cycle arrest in human SMMC7721 cells assessed as accumulation at S phase at 6 uM after 24 hrs using PI staining by flow cytometry (reference value: 24.41%). It is filed as functional.
Assay [19] deals with SMMC-7721. The experiment in a line: Induction of apoptosis in human SMMC7721 cells at 6 uM after 48 hrs using by V-FITC/PI double-staining assay (reference value: 2.73 +/- 0.69%). It is filed as functional.
The test system of assay [20] is SMMC-7721. Briefly: Induction of apoptosis in human SMMC7721 cells assessed as early apoptotic cells at 6 uM after 48 hrs using by V-FITC/PI double-staining assay (reference value: 1.76%). The format is functional.
Assay [21] concerns SMMC-7721. The experiment in a line: Cell cycle arrest in human SMMC7721 cells assessed as accumulation at S phase at 3 uM after 24 hrs using PI staining by flow cytometry (reference value: 24.41%). The format is functional.
The subject of assay [22] is SMMC-7721. The experiment in a line: Cell cycle arrest in human SMMC7721 cells assessed as accumulation at G2/M phase at 6 uM after 24 hrs using PI staining by flow cytometry (reference value: 12.84%). The format is functional.
The test system of assay [23] is SMMC-7721. The experiment in a line: Induction of apoptosis in human SMMC7721 cells assessed as late apoptotic cells at 9 uM after 48 hrs using by V-FITC/PI double-staining assay (reference value: 0.481%). It is filed as functional.
In assay [24] the test system is SMMC-7721. Briefly: Induction of apoptosis in human SMMC7721 cells assessed as necrotic cells at 3 uM after 48 hrs using by V-FITC/PI double-staining assay (reference value: 4.90%). It is filed as functional.
Assay [25] relates to SMMC-7721. The experiment in a line: Cell cycle arrest in human SMMC7721 cells assessed as accumulation at G1 phase at 6 uM after 24 hrs using PI staining by flow cytometry (reference value: 60.29%). It is filed as functional.
For assay [26], the system named is SMMC-7721. The experiment in a line: Induction of apoptosis in human SMMC7721 cells assessed as necrotic cells at 9 uM after 48 hrs using by V-FITC/PI double-staining assay (reference value: 4.90%). It is filed as functional.
In assay [27] the test system is SMMC-7721. Briefly: Induction of apoptosis in human SMMC7721 cells assessed as necrotic cells at 6 uM after 48 hrs using by V-FITC/PI double-staining assay (reference value: 4.90%). The format is functional.

One may read the IC50 as the midpoint of a concentration-inhibition curve. High values mean weaker potency in that assay, low ones greater potency in that assay.

Turning to `Cc1n(C(c2ccccc2)c2ccc3oc4ccccc4c3c2)cc[n+]1CC(=O)c1ccc(Br)cc1` (configuration not stated), the IC50 stood at 3.93 µM in assay [1]; 2.25 µM in assay [2]; 9.46 µM in assay [3]; 1.98 µM in [4]; 3.45 µM in [5].
The matching figures for `CC(c1ccc2oc3ccccc3c2c1)n1cnc2ccccc21` (configuration not stated): > 40 µM, > 40 µM, > 40 µM, > 40 µM and > 40 µM.
The matching figures for `CCCC[n+]1ccn(C(C)c2ccc3oc4ccccc4c3c2)c1` (configuration not stated): 14.2 µM, 5.63 µM, 12.8 µM, 24.1 µM and 9.11 µM.
The matching figures for `CC(c1ccc2oc3ccccc3c2c1)n1cc[n+](CC(=O)c2ccc3ccccc3c2)c1` (configuration not stated): 6.43 µM, 2.46 µM, 8.46 µM, 3.69 µM and 3.5 µM.
Regarding `Cc1nccn1C(c1ccccc1)c1ccc2oc3ccccc3c2c1` (configuration not stated), the IC50 was 30.2 µM in assay [1]; 14.5 µM in [2]; 18.2 µM in [3]; > 40 µM in assay [4]; 23.5 µM in assay [5].
For `CC(c1ccc2oc3ccccc3c2c1)n1cc[n+](Cc2ccc([N+](=O)[O-])cc2)c1` (configuration not stated) the same measures were 22.5 µM, 11.3 µM, > 40 µM, > 40 µM and 13.8 µM.
For `Cc1n(C(C)c2ccc3oc4ccccc4c3c2)cc[n+]1CC(=O)c1ccccc1` (configuration not stated) the same measures were 3.02 µM, 2.85 µM, 17.9 µM, 10.1 µM and 4.49 µM.
For `O=C(C[n+]1cn(C(c2ccccc2)c2ccc3oc4ccccc4c3c2)c2ccccc21)c1ccccc1` (configuration not stated) the same measures were 4.61 µM, 2.3 µM, 13.6 µM, 3.54 µM and 2.5 µM.
For `CC(c1ccc2oc3ccccc3c2c1)n1c[n+](Cc2ccc([N+](=O)[O-])cc2)c2ccccc21` (configuration not stated), the IC50 in [1] was determined as 18.4 µM; in [2], 5.93 µM; in [3] it was 32.3 µM; in [4], 13.4 µM; in [5], 13.8 µM.
The matching figures for `O=[N+]([O-])c1ccc(C[n+]2ccn(C(c3ccccc3)c3ccc4oc5ccccc5c4c3)c2)cc1` (configuration not stated): 15.3 µM, 10.8 µM, 28.6 µM, 19.1 µM and 10.3 µM.
On to `O=C(c1ccccc1)C(c1ccccc1)[n+]1ccn(C(c2ccccc2)c2ccc3oc4ccccc4c3c2)c1` (configuration not stated), for which the IC50 in [1] was 2.38 µM; in assay [2], 0.52 µM; in assay [3], 3.75 µM; in assay [4] it was 2.36 µM; in assay [5], 1.46 µM.
For `O=[N+]([O-])c1ccc(C[n+]2cn(C(c3ccccc3)c3ccc4oc5ccccc5c4c3)c3ccccc32)cc1` (configuration not stated) the same measures were 13.2 µM, 4.6 µM, 21.7 µM, 16.7 µM and 9.26 µM.
For `CCCC[n+]1ccn(C(C)c2ccc3oc4ccccc4c3c2)c1C` (configuration not stated) the same measures were 7.98 µM, 3.08 µM, 13 µM, 10 µM and 6.6 µM.
For `COc1ccc(C(=O)C[n+]2ccn(C(c3ccccc3)c3ccc4oc5ccccc5c4c3)c2)cc1` (configuration not stated) the same measures were 5.59 µM, 2.09 µM, 7.27 µM, 3.76 µM and 4.12 µM.
Consider `O=C(C[n+]1cn(C(c2ccccc2)c2ccc3oc4ccccc4c3c2)c2ccccc21)c1ccc(F)cc1` (configuration not stated), for which the IC50 worked out at 3.57 µM in [1]; 2.18 µM in assay [2]; 12.1 µM in assay [3]; 3.6 µM in assay [4]; 1.87 µM in [5].
The matching figures for `CC(c1ccc2oc3ccccc3c2c1)n1cc[n+](CC(=O)c2ccc(F)cc2)c1` (configuration not stated): 17.5 µM, 2.64 µM, 22.6 µM, 16.4 µM and 16.7 µM.
The matching figures for `O=C(C[n+]1ccn(C(c2ccccc2)c2ccc3oc4ccccc4c3c2)c1)c1ccc(Br)cc1` (configuration not stated): 10.8 µM, 2.13 µM, 7.7 µM, 2.11 µM and 3.32 µM.
For the molecule `O=C(C[n+]1cn(C(c2ccccc2)c2ccc3oc4ccccc4c3c2)c2ccccc21)c1ccc2ccccc2c1.[Br-]` (configuration not stated), in [6], the viability at 6 µM worked out at 53.4%. For the same molecule, the Activity entry in assay [7] is “Dose-dependent effect”; in assay [8], 4.96%; in assay [9] it was 3.46%; in assay [10], 67.74%; in [11] it was 7.6%; in assay [14], 5.37%. The Activity in assay [15] is recorded as 50.8%; in [16], 13.8%; in [17] it was 11.9%; in assay [18] it was 17.8%; in [19], 43.6%; in assay [20] it was 28.6%. For the same molecule, the Activity in assay [21] was 26.8%; in assay [22], 0.75%; in assay [23], 40.1%; in assay [24], 1.06%; in assay [25] it was 80.14%; in assay [26], 8.76%. In addition, the Activity in assay [27] is 4.21%. Further, the IC50 in assay [1] was 2.86 µM; in assay [2], 0.93 µM; in assay [3], 3.54 µM; in assay [4], 3.59 µM; in assay [5], 1.04 µM. In addition, in assay [12], the viability at 9 µM worked out at 39.2%. Moreover, the viability at 3 µM in assay [13] came out at 90.1%.
For `CC(c1ccc2oc3ccccc3c2c1)n1cc[n+](CC(=O)c2ccc(O)cc2)c1` (configuration not stated), the IC50 in [1], in assay [2], in [3], in assay [4] and in assay [5] was > 40 µM each time.
